The results in this text go back to patent publication US10004701B2, “Methods and compositions for treating infection” (UNIVERSITY OF ROCHESTER, priority 2012, dated 2018).

What all share (assay): AK assay 384-well format, Prestwick library screening
The subject of one test is P. aeruginosa. In kind it is cell-based, Pseudomonas aeruginosa. The conditions noted are these: Pseudomonas aeruginosa, 3 h, 50 μM final drug concentration.
The test system of another test is K. pneumoniae. It is filed as cell-based, Klebsiella pneumoniae. The settings on record: Klebsiella pneumoniae, 3 h, 50 μM final drug concentration.
A further test relates to E. coli. It is filed as cell-based, Escherichia coli. The conditions noted are these: Escherichia coli, 3 h, 50 μM final drug concentration.
The next test deals with E. cloacae. It is filed as cell-based, Enterobacter cloacae. The settings on record: Enterobacter cloacae, 3 h, 50 μM final drug concentration.
Test [1] relates to S. aureus strain USA300-0114. It is filed as cell-based, Staphylococcus aureus. The settings on record: Staphylococcus aureus, USA300, 3 h, 50 μM final drug concentration.
Test [2] relates to A. baumannii strain 98-37-09. In kind it is cell-based, Acinetobacter baumannii. The conditions noted are these: Acinetobacter baumannii, 983709, 3 h, 50 μM final drug concentration.
In another test the test system is E. faecium. In kind it is cell-based, Enterococcus faecium. The conditions noted are these: Enterococcus faecium, 3 h, 50 μM final drug concentration.
[3] abbreviates: planktonic, cutoff for positive 3-fold increase, read-out: AK-based Prestwick Library Screening Results, P. aeruginosa (fold increase in extracellular AK activity).
The mark [4] stands for this setting: planktonic, cutoff for positive 3-fold increase, read-out: AK-based Prestwick Library Screening Results, K. pneumoniae (fold increase in extracellular AK activity).
The mark [5] stands for this setting: planktonic, cutoff for positive 3-fold increase, read-out: AK-based Prestwick Library Screening Results, E. coli (fold increase in extracellular AK activity).
Setting [6] is: planktonic, cutoff for positive 3-fold increase, read-out: AK-based Prestwick Library Screening Results, E. cloacae (fold increase in extracellular AK activity).
Where [7] appears, read: planktonic, cutoff for positive 3-fold increase, read-out: AK-based Prestwick Library Screening Results, S. aureus (fold increase in extracellular AK activity).
[8] abbreviates: planktonic, cutoff for positive 3-fold increase, read-out: AK-based Prestwick Library Screening Results, A. baumannii (fold increase in extracellular AK activity).
[9] abbreviates: planktonic, cutoff for positive 3-fold increase, read-out: AK-based Prestwick Library Screening Results, E. faecium (fold increase in extracellular AK activity).
Where [10] appears, read: planktonic P. aeruginosa, positive cutoff 3-fold increase, read-out: AK-based Prestwick library screening result, P. aeruginosa (fold increase in extracellular AK activity).
[11] abbreviates: planktonic K. pneumoniae, positive cutoff 3-fold increase, read-out: AK-based Prestwick library screening result, K. pneumoniae (fold increase in extracellular AK activity).
Where [12] appears, read: planktonic E. coli, positive cutoff 3-fold increase, read-out: AK-based Prestwick library screening result, E. coli (fold increase in extracellular AK activity).
[13] abbreviates: planktonic E. cloacae, positive cutoff 3-fold increase, read-out: AK-based Prestwick library screening result, E. cloacae (fold increase in extracellular AK activity).
Where [14] appears, read: planktonic S. aureus, positive cutoff 3-fold increase, read-out: AK-based Prestwick library screening result, S. aureus (fold increase in extracellular AK activity).
[15] abbreviates: planktonic A. baumannii, positive cutoff 3-fold increase, read-out: AK-based Prestwick library screening result, A. baumannii (fold increase in extracellular AK activity).
[16] abbreviates: planktonic E. faecium, positive cutoff 3-fold increase, read-out: AK-based Prestwick library screening result, E. faecium (fold increase in extracellular AK activity).
Where [17] appears, read: cutoff for positive-scoring molecules 3-fold increase, read-out: AK-based Prestwick Library Screening Results, P. aeruginosa (fold increase in extracellular AK activity).
The mark [18] stands for this setting: cutoff for positive-scoring molecules 3-fold increase, read-out: AK-based Prestwick Library Screening Results, K. pneumoniae (fold increase in extracellular AK activity).
[19] abbreviates: cutoff for positive-scoring molecules 3-fold increase, read-out: AK-based Prestwick Library Screening Results, E. coli (fold increase in extracellular AK activity).
The mark [20] stands for this setting: cutoff for positive-scoring molecules 3-fold increase, read-out: AK-based Prestwick Library Screening Results, E. cloacae (fold increase in extracellular AK activity).
The mark [21] stands for this setting: cutoff for positive-scoring molecules 3-fold increase, read-out: AK-based Prestwick Library Screening Results, S. aureus (fold increase in extracellular AK activity).
Where [22] appears, read: cutoff for positive-scoring molecules 3-fold increase, read-out: AK-based Prestwick Library Screening Results, A. baumannii (fold increase in extracellular AK activity).
The mark [23] stands for this setting: cutoff for positive-scoring molecules 3-fold increase, read-out: AK-based Prestwick Library Screening Results, E. faecium (fold increase in extracellular AK activity).

Structures can show the parent of a compound that is named as a salt. Where two headings read alike, the source gives them in different places.

With `CN/C(=N/CCSCc1nc[nH]c1C)NC#N` [Cimetidine], the fold induction at 50 µM was 0.8 in the test with P. aeruginosa (384-well format, cutoff for positive-scoring molecules 3-fold increase, read-out: AK-based Prestwick Library Screening Results, P. aeruginosa (increase in extracellular AK activity)); 0.7 in the test on K. pneumoniae (384-well format, cutoff for positive-scoring molecules 3-fold increase, read-out: AK-based Prestwick Library Screening Results, K. pneumoniae (increase in extracellular AK activity)); 0.9 with E. coli (384-well format, cutoff for positive-scoring molecules 3-fold increase, read-out: AK-based Prestwick Library Screening Results, E. coli (increase in extracellular AK activity)); 1 in the test with E. cloacae (384-well format, cutoff for positive-scoring molecules 3-fold increase, read-out: AK-based Prestwick Library Screening Results, E. cloacae (increase in extracellular AK activity)); 0.8 in test [1] (384-well format, cutoff for positive-scoring molecules 3-fold increase, read-out: AK-based Prestwick Library Screening Results, S. aureus (increase in extracellular AK activity)); 0.8 in test [2] (384-well format, cutoff for positive-scoring molecules 3-fold increase, read-out: AK-based Prestwick Library Screening Results, A. baumannii (increase in extracellular AK activity)). Besides, the fold induction at 50 µM with E. faecium (384-well format, cutoff for positive-scoring molecules 3-fold increase, read-out: AK-based Prestwick Library Screening Results, E. faecium (increase in extracellular AK activity)) was found to be 0.9.

Consider `Nc1cc(C(Cl)=C(Cl)Cl)c(S(N)(=O)=O)cc1S(N)(=O)=O` [Clorsulon], for which the fold induction at 50 µM in the test with P. aeruginosa (setting [3]) was found to be 1.1; with K. pneumoniae (setting [4]) it was 1; with E. coli (setting [5]), 1; in the test on E. cloacae (setting [6]), 1.7; in test [1] (setting [7]), 1.5; in test [2] (setting [8]), 1. Moreover, in the test on E. faecium (setting [9]), the fold induction at 50 µM was found to be 1.4.

`CCN(CC)C(=O)N1CCN(C)CC1` [Diethylcarbamazine citrate]: the fold induction at 50 µM with P. aeruginosa (planktonic P. aeruginosa, 384-well, cutoff for positive-scoring molecules 3-fold increase, read-out: AK-based Prestwick Library Screening Results: P. aeruginosa (increase in extracellular AK activity)) was 1.1; with K. pneumoniae (planktonic K. pneumoniae, 384-well, cutoff for positive-scoring molecules 3-fold increase, read-out: AK-based Prestwick Library Screening Results: K. pneumoniae (increase in extracellular AK activity)) it was 0.9; in the test with E. coli (planktonic E. coli, 384-well, cutoff for positive-scoring molecules 3-fold increase, read-out: AK-based Prestwick Library Screening Results: E. coli (increase in extracellular AK activity)), 1.3; in the test on E. cloacae (planktonic E. cloacae, 384-well, cutoff for positive-scoring molecules 3-fold increase, read-out: AK-based Prestwick Library Screening Results: E. cloacae (increase in extracellular AK activity)) it was 1.7; in test [1] (planktonic S. aureus, 384-well, cutoff for positive-scoring molecules 3-fold increase, read-out: AK-based Prestwick Library Screening Results: S. aureus (increase in extracellular AK activity)), 1.1; in test [2] (planktonic A. baumannii, 384-well, cutoff for positive-scoring molecules 3-fold increase, read-out: AK-based Prestwick Library Screening Results: A. baumannii (increase in extracellular AK activity)) it was 1.1. Besides, the fold induction at 50 µM in the test with E. faecium (planktonic E. faecium, 384-well, cutoff for positive-scoring molecules 3-fold increase, read-out: AK-based Prestwick Library Screening Results: E. faecium (increase in extracellular AK activity)) came to 1.2.

In the case of `CCCNC(C)(C)COC(=O)c1ccccc1` [Meprylcaine hydrochloride], the fold induction at 50 µM worked out at 0.9 with P. aeruginosa (setting [10]); 0.7 with K. pneumoniae (setting [11]); 0.9 in the test with E. coli (setting [12]); 0.8 with E. cloacae (setting [13]); 0.6 in test [1] (setting [14]); 0.8 in test [2] (setting [15]). Also, in the test with E. faecium (setting [16]), the fold induction at 50 µM came out at 0.9.

Take `NC(=O)c1cc[n+](CC2=C(C(=O)[O-])N3C(=O)[C@@H](NC(=O)Cc4cccs4)[C@H]3SC2)cc1` [Cefalonium]: the fold induction at 50 µM in the test on P. aeruginosa (setting [10]) turned out to be 0.8; in the test on K. pneumoniae (setting [11]) it was 3.8; in the test on E. coli (setting [12]), 16.6; in the test on E. cloacae (setting [13]), 1.4; in test [1] (setting [14]), 1.6; in test [2] (setting [15]) it was 1.5. In addition, the fold induction at 50 µM in the test with E. faecium (setting [16]) was 0.9.

For the compound `OCc1cc(C(O)CNCCCCCCOCCCCc2ccccc2)ccc1O` (stereo not shown) [Salmeterol], the fold induction at 50 µM with P. aeruginosa (setting [17]) is 1.2; in the test on K. pneumoniae (setting [18]) it was 1.1; in the test with E. coli (setting [19]), 1.4; in the test with E. cloacae (setting [20]), 1.5; in test [1] (setting [21]), 1.9; in test [2] (setting [22]), 1.5. The fold induction at 50 µM in the test on E. faecium (setting [23]) was 1.

As for `O=C(CCCN1CCN(c2ccccn2)CC1)c1ccc(F)cc1` [Azaperone], the fold induction at 50 µM in the test with P. aeruginosa (setting [10]) worked out at 1; in the test on K. pneumoniae (setting [11]), 1; with E. coli (setting [12]), 1.1; in the test on E. cloacae (setting [13]), 1.9; in test [1] (setting [14]), 1.2; in test [2] (setting [15]), 1.2. Besides, the fold induction at 50 µM in the test with E. faecium (setting [16]) came out at 1.

Regarding `Cc1cc(CC(=O)O)n(C)c1C(=O)c1ccc(Cl)cc1` [Zomepirac sodium salt], the fold induction at 50 µM is 0.9 in the test with P. aeruginosa (setting [17]); 1 in the test on K. pneumoniae (setting [18]); 1.1 in the test on E. coli (setting [19]); 1.6 in the test with E. cloacae (setting [20]); 0.9 in test [1] (setting [21]); 1.1 in test [2] (setting [22]). Besides, the fold induction at 50 µM in the test with E. faecium (setting [23]) turned out to be 1.1.

On to `CN1CCCCC1CCN1c2ccccc2Sc2ccc([S+](C)[O-])cc21` (stereo not shown) [Mesoridazine besylate], for which the fold induction at 50 µM was found to be 1.2 in the test on P. aeruginosa (setting [3]); 1 in the test on K. pneumoniae (setting [4]); 1.1 in the test on E. coli (setting [5]); 1.3 in the test on E. cloacae (setting [6]); 1.3 in test [1] (setting [7]); 1 in test [2] (setting [8]). Besides, in the test on E. faecium (setting [9]), the fold induction at 50 µM was determined as 1.1.

As for `CN1[C@@H]2CC[C@H]1C[C@@H](OC(=O)c1c[nH]c3ccccc13)C2` [Tropisetron HCl], the fold induction at 50 µM worked out at 1.1 with P. aeruginosa (setting [3]); 0.8 in the test with K. pneumoniae (setting [4]); 1.1 in the test with E. coli (setting [5]); 1.3 with E. cloacae (setting [6]); 0.9 in test [1] (setting [7]); 1.3 in test [2] (setting [8]). Further, in the test with E. faecium (setting [9]), the fold induction at 50 µM was determined as 1.
